Source: patent US20220409570A1, “COMPOSITION OF N-PALMITOYL-ETHANOLAMIDE AND BAICALEIN IN CO-MICRONIZED FORM” (EPITECH GROUP S.P.A., priority 2021, published 2022)

Experiments:
Type in all cases: in vivo, Male Sprangue Dawley rats
Bax = assay: Western blot of pro-apoptotic factor Bax in prostate tissue of BPH rats; settings: per os daily for 14 days, co-micronized PEA-Baicalein 10 mg/kg, um-PEA 9 mg/kg, Baicalein 1 mg/kg, vs BPH+vehicle, FIG. 3C
Excerpt: (§1) Male Sprangue Dawley rats (200-250 gr, Envigo, Italy) fed ad libitum and housed in cages with controlled sleep/wake cycle were used for the in vivo experimentation. Before the start of the experimentation, the animals were subjected to an acclimatization period of one week considering all the experimental procedures and protocols, compliant with the principles of care and welfare of laboratory animals approved by the Italian Ministry of Health and European directives (Italian Legislative Decree 2014/26 and EU Directive 2010/63) and by the OPBA of the University of Messina. […]
(§2) The animals were euthanized 14 days after the start of the experimentation. […] Specifically, the DHT levels were analyzed in the plasma samples with the commercially available Enzyme-linked Immunosorbent Assay (ELISA) (My BioSource). The samples were dosed with the microplate reader and the absorbance was read spectrophotometrically at 450 nm. […] The protein expression was quantified by densitometry (BIORAD ChemiDoc™ XRS+software) and normalized to the housekeeping gene β-actin.

PSA = assay: Western blot of PSA in prostate tissue of BPH rats; settings: per os daily for 14 days, co-micronized PEA-Baicalein 10 mg/kg, um-PEA 9 mg/kg, Baicalein 1 mg/kg, vs BPH+vehicle, FIG. 2D
Excerpt: as §1, §2

AR = assay: Western blot of AR in prostate tissue of BPH rats; settings: per os daily for 14 days, co-micronized PEA-Baicalein 10 mg/kg, um-PEA 9 mg/kg, Baicalein 1 mg/kg, vs BPH+vehicle, FIG. 2C
Excerpt: as §1, §2

Bcl-2 = assay: Western blot of anti-apoptotic factor Bcl-2 in prostate tissue of BPH rats; settings: per os daily for 14 days, co-micronized PEA-Baicalein 10 mg/kg, um-PEA 9 mg/kg, Baicalein 1 mg/kg, vs BPH+vehicle, FIG. 3B
Excerpt: as §1, §2

DHT = assay: Serum DHT levels (ELISA) in rats with testosterone propionate-induced BPH; settings: per os daily for 14 days, co-micronized PEA-Baicalein 10 mg/kg (9:1), um-PEA 9 mg/kg, Baicalein 1 mg/kg, vs BPH+vehicle, FIG. 2A
Excerpt: as §1, §2

5α-red 2 = assay: Western blot of 5α-red 2 in prostate tissue of BPH rats; settings: per os daily for 14 days, co-micronized PEA-Baicalein 10 mg/kg, um-PEA 9 mg/kg, Baicalein 1 mg/kg, normalized to β-actin, FIG. 2B
Excerpt: as §1, §2

[1] = system: testosterone propionate-induced BPH (Benign Prostatic Hyperplasia); assay: Weight of the prostate in BPH rats; settings: per os daily for 14 days, co-micronized PEA-Baicalein 10 mg/kg, um-PEA 9 mg/kg, FIG. 3A
Excerpt: as §1, §2

| Compound | Expression of the pro-apoptotic factor Bax (WB densitometry) (Bax) | Expression (tissue levels) of PSA (WB densitometry) (PSA) | Expression (tissue levels) of AR (WB densitometry) (AR) | Levels of the anti-apoptotic factor Bcl-2 (WB densitometry) (Bcl-2) | Serum levels of DHT (DHT) | Expression of the 5α-red 2 protein in prostate tissue (WB densitometry) (5α-red 2) | Weight of the prostate [1] |
| --- | --- | --- | --- | --- | --- | --- | --- |
| O=c1cc(-c2ccccc2)oc2cc(O)c(O)c(O)c12 [Baicalein, 5,6,7-trihydroxyflavone] | did not show a statistically significant change | did not bring significant changes | did not bring significant changes | did not show a statistically significant change | markedly elevated | not capable of reducing the expression of such an enzyme | – |
| CCCCCCCCCCCCCCCC(=O)NCCO [um-PEA, Palmitoylethanolamide] | decidedly minor effect and with lower statistical significance | significantly greater and clearer effect, with respect to um-PEA alone | – | decidedly minor effect and with lower statistical significance | more than the um-PEA (9 mg/kg), significantly reduces serum DHT | more than the um-PEA alone at 9 mg/kg, significantly reduces the expression of the enzyme 5α-red 2 | progressive decrease in prostate weight |
